Experimental data taken from patent US10111874B2, “Combination therapies for treatment of cancer” (Araxes Pharma LLC, priority 2014, dated 2018).

Target: T1, KRAS G12C 1-169, his-tagged protein, GDP-loaded (Homo sapiens, UniProt P01116, G12C)
T1 construct: KRAS G12C 1-169, his-tagged protein, GDP-loaded
Assay: Biochemical assay: covalent binding to KRAS G12C analyzed by mass spectrometry; also: test concentration or dose not given here
Conditions: compounds 1-47, measured at 24 h

T1 sequence (P01116 1-169 isoform P01116-2 G12C): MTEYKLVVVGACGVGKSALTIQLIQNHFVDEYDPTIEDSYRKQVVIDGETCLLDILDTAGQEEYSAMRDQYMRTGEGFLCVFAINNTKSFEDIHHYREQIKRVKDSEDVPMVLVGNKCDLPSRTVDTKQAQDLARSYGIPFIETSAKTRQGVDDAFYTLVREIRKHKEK

**Q.** For `C=CC(=O)N1CCN(c2ncnc3cc(Cl)c(-c4ccccc4C#N)cc23)CC1` [Compound I-8, 2-(4-(4-acryloylpiperazin-1-yl)-7-chloroquinoazlin-6-yl)benzonitrile], which Binding % is on record?
**A.** The Binding % was “++ (++indicates binding activity greater than 25% and up to 50%)”.

**Q.** `C=CC(=O)N1CCN(c2ncnc3cc(Cl)c(-c4cc(Cl)ccc4Cl)cc23)CC1` [Compound I-9, 1-(4-(7-chloro-6-(2,5-dichlorophenyl)quinazolin-4-yl)piperazain-1-yl)prop-2-en-1-one] was tested. Which Binding % did it give?
**A.** Its Binding % is “+++ (+++indicates binding activity greater than 50% and up to 75%)”.

Same assay, conditions: compounds 48-246, measured at 2 h

**Q.** Which Binding % does the source give for `C=CC(=O)N1CCN(C2=c3cc(Cl)c(-c4ccccc4F)cc3=NCN2C(N)=O)CC1` [Compound I-189, 4-(4-acryloylpiperazin-1-yl)-6-chloro-7-(2-fluorophenyl)quinazolin-3-carboxamide] here?
**A.** Its Binding % is “++ (++indicates binding activity greater than 25% and up to 50%)”.

**Q.** Which Binding % does the source give for `C=CC(=O)N1CCN(c2ncnc3cc(-c4ccc(Cl)cc4)c(Cl)cc23)CC1` [Compound I-78, 1-(4-(6-chloro-7-(4-chlorophenyl)quinazolin-4-yl)piperazin-1-yl)prop-2-en-1-one] here?
**A.** The Binding % was “+ (+indicates binding activity from 5% to 25%)”.

**Q.** With `C=CC(=O)N1CCN(c2ncnc3cc(-c4cccc5onc(N)c45)c(Cl)cc23)CC1` [Compound I-149, 1-(4-(7-(3-aminobenzo[d]isoxazol-4-yl)-6-chloroquinazolin-4-yl)piperazin-1-yl)prop-2-en-1-one] as the compound, how does the Binding % read?
**A.** The Binding % was “+ (+indicates binding activity from 5% to 25%)”.

**Q.** For `C=CC(=O)N1CCN(c2ncnc3cc(-c4ccc(F)cc4F)c(C(F)(F)F)cc23)CC1` [Compound I-204, 1-(4-(7-(2,4-difluorophenyl)-6-(trifluoromethyl)quinazolin-4-yl)piperazin-1-yl)prop-2-en-1-one], which Binding % is on record?
**A.** Its Binding % is “+++ (+++indicates binding activity greater than 50% and up to 75%)”.

**Q.** For `C=CC(=O)N1CCN(c2ncnc3cc(-c4ccccc4C(F)(F)F)c(C(F)(F)F)cc23)CC1` [Compound I-212, 1-(4-(6-(trifluoromethyl)-7-(2-(trifluoromethyl)phenyl)quinazolin-4-yl)piperazin-1-yl)prop-2-en-1-one], which Binding % is on record?
**A.** Its Binding % is “++++ (++++indicates binding activity greater than 75%)”.

**Q.** `C=CC(=O)N1CCN(c2ncnc3cc(-c4c(O)cccc4F)c(C(F)(F)F)cc23)CC1` [Compound I-208, 1-(4-(7-(2-fluoro-6-hydroxyphenyl)-6-(trifluoromethyl)quinazolin-4-yl)piperazin-1-yl)prop-2-en-1-one] was tested. Which Binding % did it give?
**A.** Its Binding % is “++++ (++++indicates binding activity greater than 75%)”.

**Q.** Which Binding % does the source give for `C=CC(=O)N1CCN(c2ncnc3cc(-c4cccc5cnccc45)c(Cl)cc23)CC1` [Compound I-136, 1-(4-(6-chloro-7-(isoquinolin-5-yl)quinazolin-4-yl)piperazin-1-yl)prop-2-en-1-one] here?
**A.** The Binding % was “++ (++indicates binding activity greater than 25% and up to 50%)”.

**Q.** Which Binding % does the source give for `C=CC(=O)N1CC(Nc2ncnc3cc(-c4ccccc4)c(Cl)cc23)C1` [Compound I-96, 1-(3-(6-chloro-7-phenylquinazolin-4-ylamino)azetidin-1-yl)prop-2-en-1-one] here?
**A.** The Binding % was “+ (+indicates binding activity from 5% to 25%)”.

**Q.** Which Binding % does the source give for `C=CC(=O)N1CCN(c2ncnc3cc(-c4ccccc4COC)c(Cl)cc23)CC1` [Compound I-103, 1-(4-(6-chloro-7-(2-(methoxymethyl)phenyl)quinazolin-4-yl)piperazin-1-yl)prop-2-en-1-one] here?
**A.** Its Binding % is “++ (++indicates binding activity greater than 25% and up to 50%)”.

**Q.** `C=CC(=O)N1CCN(c2ncnc3cc(-c4cccc5ncoc45)c(Cl)cc23)CC1` [Compound I-129, 1-(4-(7-(benzo[d]oxazol-7-yl)-6-chloroquinazolin-4-yl)piperazin-1-yl)prop-2-en-1-one] was tested. Which Binding % did it give?
**A.** Its Binding % is “+ (+indicates binding activity from 5% to 25%)”.

**Q.** How did the Binding % turn out when `C=CC(=O)N1CCN(c2ncnc3cc(-c4nc(N)ncc4C)c(Cl)cc23)CC1` [Compound I-179, 1-(4-(7-(2-amino-5-methylpyrimidin-4-yl)-6-chloroquinazolin-4-yl)piperazin-1-yl)prop-2-en-1-one] was run?
**A.** The Binding % was “+ (+indicates binding activity from 5% to 25%)”.

**Q.** `CN(C)C/C=C/C(=O)N1CCN(c2ncnc3cc(Cl)c(-c4ccc(Cl)cc4)cc23)CC1C#N` (stereo not shown) [Compound I-66, (E)-4-(7-Chloro-6-(4-chlorophenyl)quinazolin-4-yl)-1-(4-(dimethylamino)but-2-enoyl)piperazine-2-carbonitrile] was tested. Which Binding % did it give?
**A.** The Binding % was “++++ (++++indicates binding activity greater than 75%)”.

**Q.** `C=CC(=O)N1CCN(c2ncnc3cc(-c4ccccc4C(F)(F)F)ccc23)CC1` [Compound I-157, 1-(4-(7-(2-(trifluoromethyl)phenyl)quinazolin-4-yl)piperazin-1-yl)prop-2-en-1-one] was tested. Which Binding % did it give?
**A.** The Binding % was “+ (+indicates binding activity from 5% to 25%)”.

**Q.** For `C=CC(=O)N1CCN(c2ncnc3cc(-c4c(F)ccc(F)c4O)c(Cl)cc23)CC1` [Compound I-216, 1-(4-(6-chloro-7-(3,6-difluoro-2-hydroxyphenyl)quinazolin-4-yl)piperazin-1-yl)prop-2-en-1-one], which Binding % is on record?
**A.** Its Binding % is “+ (+indicates binding activity from 5% to 25%)”.

**Q.** How did the Binding % turn out when `C=CC(=O)N1CCN(c2ncnc3cc(-c4ccccc4F)c(Cl)cc23)CC1` [Compound I-81, 1-(4-(6-chloro-7-(2-fluorophenyl)quinazolin-4-yl)piperazin-1-yl)prop-2-en-1-one] was run?
**A.** Its Binding % is “+++ (+++indicates binding activity greater than 50% and up to 75%)”.

Same assay, conditions: compounds 247-342, measured at 30 min

**Q.** How did the Binding % turn out when `C=CC(=O)N1CCN(c2ncnc3c(F)c(-c4c[nH]c5ccccc45)c(Cl)cc23)CC1` [Compound I-288, 1-(4-(6-chloro-8-fluoro-7-(1H-indol-3-yl)quinazolin-4-yl)piperazin-1-yl)prop-2-en-1-one] was run?
**A.** The Binding % was “++ (++indicates binding activity greater than 25% and up to 50%)”.

**Q.** How did the Binding % turn out when `C=CC(=O)N1CCN(c2ncnc3c(F)c(-c4c(C)ccc5[nH]ncc45)c(Cl)cc23)CC1C` (stereo not shown) [Compound 327, 1-(4-(6-chloro-8-fluoro-7-(5-methyl-1H-indazol-4-yl)quinazolin-4-yl)-2-methylpiperazin-1-yl)prop-2-en-1-one] was run?
**A.** Its Binding % is “++ (++indicates binding activity greater than 25% and up to 50%)”.

**Q.** With `N#C/C(=C\c1ccccn1)C(=O)N1CCN(c2ncnc3c(F)c(-c4c(O)cccc4F)c(Cl)cc23)CC1` [Compound I-284, (E)-2-(4-(6-chloro-8-fluoro-7-(2-fluoro-6-hydroxyphenyl)quinazolin-4-yl)piperazine-1-carbonyl)-3-(pyridin-2-yl)acrylonitrile] as the compound, how does the Binding % read?
**A.** Its Binding % is “++++ (++++indicates binding activity greater than 75%)”.

**Q.** `C=CC(=O)N1CCN(c2ncnc3c(F)c(-c4c(O)cccc4Cl)c(Cl)cc23)CC1` [Compound I-289, 1-(4-(6-chloro-7-(2-chloro-6-hydroxyphenyl)-8-fluoroquinazolin-4-yl)piperazin-1-yl)prop-2-en-1-one] was tested. Which Binding % did it give?
**A.** Its Binding % is “+++ (+++indicates binding activity greater than 50% and up to 75%)”.

**Q.** How did the Binding % turn out when `C=CC(=O)N1CCN(c2ncnc3c(F)c(-c4c(F)ccc(F)c4O)c(Cl)cc23)CC1` [Compound I-277, 1-(4-(6-chloro-7-(3,6-ddifluoro-2-hydroxyphenyl)-8-fluoroquinazolin-4-yl)piperazin-1-yl)prop-2-en-1-one] was run?
**A.** The Binding % was “+ (+indicates binding activity from 5% to 25%)”.

**Q.** How did the Binding % turn out when `C=CC(=O)N1CCN(c2ncnc3c(F)c(-c4c(O)cc(F)cc4F)c(Cl)cc23)CC1` [Compound I-280, 1-(4-(6-chloro-7-(2,4-difluoro-6-hydroxyphenyl)-8-fluoroquinazolin-4-yl)piperazin-1-yl)prop-2-en-1-one] was run?
**A.** Its Binding % is “+++ (+++indicates binding activity greater than 50% and up to 75%)”.

**Q.** How did the Binding % turn out when `C=CC(=O)N1CCN(c2nc(OCCN(C)C)nc3cc(-c4c(C)ccc5[nH]ncc45)c(Cl)cc23)CC1` [Compound 314, 1-(4-(6-chloro-2-(2-(dimethylamino)ethoxy)-7-(5-methyl-1H-indazol-4-yl)quinazolin-4-yl)piperazin-1-yl)prop-2-en-1-one] was run?
**A.** The Binding % was “++++ (++++indicates binding activity greater than 75%)”.

Same assay, conditions: determined at 2 hrs

**Q.** Which Binding % does the source give for `C=CC(=O)N1CC(N2CCN(C(=O)CNc3cc(CC(F)(F)F)c(Cl)cc3O)CC2)C1` [II-57, 1-(3-(4-(2-((4-Chloro-2-hydroxy-5-(2,2,2-trifluoroethyl)phenyl)amino)acetyl)piperazin-1-yl)azetidin-1-yl)prop-2-en-1-one] here?
**A.** The Binding % was “++ (++indicates binding activity greater than 20%)”.

**Q.** Which Binding % does the source give for `C=CC(=O)N1CC(N2CCN(C(=O)[C@@H](C)Nc3cc(C4CC4)c(Cl)cc3O)CC2)C1` [II-68, (R)-1-(3-(4-(2-(4-chloro-5-cyclopropyl-2-hydroxyphenylamino)-propanoyl)piperazin-1-yl)azetidin-1-yl)prop-2-en-1-one] here?
**A.** Its Binding % is “++ (++indicates binding activity greater than 20%)”.

**Q.** With `C=CC(=O)N1CC(N2CCN(C(=O)CNc3cc(Cl)c(CC)cc3O)CC2)C1` [II-52, 1-(3-(4-(2-(5-chloro-4-ethyl-2-hydroxyphenylamino)acetyl)piperazin-1-yl)azetidin-1-yl)prop-2-en-1-one] as the compound, how does the Binding % read?
**A.** Its Binding % is “+ (+indicates binding activity from 5% to 20%)”.

Same assay, conditions: determined at 24 hrs

**Q.** Which Binding % does the source give for `C=CC(=O)N1CCC(N2CCN(C(=O)CNc3cc(CC)c(Cl)cc3O)CC2)C1` (stereo not shown) [II-12, 1-(3-(4-(2-(4-chloro-5-ethyl-2-hydroxyphenylamino)-acetyl)piperazin-1-yl)pyrrolidin-1-yl)prop-2-en-1-one] here?
**A.** The Binding % was “+++ (+++indicates binding activity greater than 25% and up to 50%)”.

**Q.** How did the Binding % turn out when `C=CC(=O)N1CC(N2CCN(C(=O)C(C)Nc3cc(Cl)c(Cl)cc3O)CC2)C1` (stereo not shown) [II-31, 1-(3-(4-(2-(4,5-dichloro-2-hydroxyphenylamino)-propanoyl)-piperazin-1-yl)azetidin-1-yl)prop-2-en-1-one] was run?
**A.** The Binding % was “++++ (++++indicates binding activity greater than 50%)”.

**Q.** Which Binding % does the source give for `C=CC(=O)N1CC(N2CCN(C(=O)CNc3cc(Cl)c(Cl)cc3O)CC2)C1` [II-1, 1-(3-(4-(2-(4,5-dichloro-2-hydroxyphenyl-amino)acetyl)-piperazin-1-yl)azetidin-1-yl)prop-2-en-1-one] here?
**A.** The Binding % was “++++ (++++indicates binding activity greater than 50%)”.

**Q.** `C=CS(=O)(=O)N1CCC(N2CCN(C(=O)CNc3cc(Cl)c(Cl)cc3O)CC2)C1` (stereo not shown) [II-41, 2-(4,5-dichloro-2-hydroxyphenylamino)-1-(4-(1-(vinylsulfonyl)-pyrrolidin-3-yl)piperazin-1-yl)ethanone] was tested. Which Binding % did it give?
**A.** Its Binding % is “++++ (++++indicates binding activity greater than 50%)”.
